Experiments:
[1] = test system: STZ induced diabetic rats; parameters: blood glucose BEFORE / blood glucose AFTER: unit not given here; settings: Pter. 20 mg/kg, metformin 30 mg/kg, cited from earlier work; for blood glucose AFTER: after treatment; for blood glucose BEFORE: before treatment
[2] = test system: STZ induced diabetic rats; test: Effect on streptozotocin-induced diabetic rats, comparison with metformin; format: in vivo; settings: 20 mg/kg vs metformin 30 mg/kg
Procedure: (§1) Streptozotocin (STZ) induced diabetic rats were made by injecting STZ (40 mg/kg/bw) intravenously. Following verification of blood glucose levels after 72 hours, diabetic rats showing fasting blood glucose levels above 200 mg/dl were divided into two groups. The diphenylethylene was administered to one group in a dose of 20 mg/kg/bw in propyleneglycol. The control group received only propyleneglycol. Soon after the administration of the compound, glucose tolerance testing was conducted by a glucose load of 2 g/kg/bw and blood glucose levels were monitored at zero, 30, 60, 120 and 180 minutes by milking the tail of the rats.
The same test was conducted on STZ induced diabetic rats comparing the diphenylethylene with the commercial product metformin. The diphenylethylene was administered at a dose of 20 mg/kg and metformin was administered at the dosage of 30 mg/kg.

[3] = test system: spontaneously diabetic (db/db) mice; test: Blood glucose in spontaneously diabetic (db/db) mice; format: in vivo; settings: 20 mg/kg/bw/ip in propyleneglycol, within 24 hours
Procedure: Six spontaneously diabetic (db/db) mice were divided into two groups of three each. One test group receives the diphenylethylene (20 mg/kg/bw/ip) in propyleneglycol. The control group received an equal volume of propyleneglycol. Soon after the administration of the test materials, blood glucose levels were monitored at 1 hour (see FIG. 2A) and 24 hours (see FIG. 2B) after treatment. The diphenylethylene reduced the blood glucose level by over 50 percent within 24 hours, thus establishing its antihyperglycemic effect.

[4] = test system: Streptozotocin (STZ) induced diabetic rats; test: Glucose tolerance test in STZ induced diabetic rats; format: in vivo; settings: 20 mg/kg/bw in propyleneglycol, glucose load 2 g/kg/bw, monitored 0-180 minutes, FIG. 1
Procedure: as §1

[5] = cited from earlier work

CN(C)C(=N)N=C(N)N [Metformin, metformin, reference compound]
% CHANGE of blood glucose [1]: −48% | blood glucose AFTER [1]: 188 ± 36 | blood glucose BEFORE [1]: 358 ± 24

COc1cc(/C=C/c2ccc(O)cc2)cc(OC)c1 [diphenylethylene, 1-(3,5-dimethoxyphenyl)-2-(4-hydroxyphenyl)ethylene]
glucose levels compared with the commercial product (metformin) [2]: equivalent to those obtained by the commercial product | reduction of blood glucose level [3]: over 50% | % CHANGE of blood glucose [1]: −42% | blood glucose AFTER [1]: 219 ± 48 | blood glucose BEFORE [1]: 377 ± 37 | blood glucose levels versus control group after glucose load [4]: stayed consistently below the blood glucose levels in the control group

COc1cc(/C=C/c2ccc(O)cc2)cc(OC)c1 [pterostilbene, 3,5-dimethoxy-4′-hydroxy-trans-stilbene]
water solubility [5]: water insoluble
